Where a SMILES comes first, the peptide text is derived from it. [ ]: non-standard residue; d: D form.
How the values were obtained:
CLL-derived lymphocytes = assay: Cell death of CLL-derived lymphocytes (PBMCs of CLL patients), PI staining and FACS; assay type: cell-based, human; conditions: 90 min incubation, PI staining, FACS, read-out: IC50, induction of cell death, CLL
Protocol: PBMCs were isolated from venous blood of the CLL patients by Ficoll-Paque PLUS (GE Healthcare, Israel) density gradient centrifugation, as follows. Venous blood (10-20 ml) was drawn from CLL patients with satisfying diagnostic criteria for CLL or from normal adult donors. Blood was collected into heparin tubes and was diluted 1:1 with balance solution composed of two stock solutions, A (1% D-glucose, 50 mM CaCl2, 0.98 mM MgCl2, 5.4 mM KCl and 0.145 M Tris-HCl, pH 7.6) and B (0.14 M NaCl) in a 1:9 ratio. The resulting mix was carefully layered on Ficoll-Paque Plus (10 ml of diluted blood:15 ml Ficoll) in 50 ml conical tubes. The tubes were centrifuged at 400×g (with minimal acceleration and deceleration) and 18-20° C. for 40 min. […] Cells were counted by a Countess Automated Cell Counter (Invitrogen).
PBMCs (4×10^5 or 8×10^5 cells/sample) were incubated in 200 μl serum-free medium with the examined peptide for 90 min at room temperature and centrifuged (500×g, 5 min) Cell death was analyzed by PI staining and flow cytometer (Beckton-Dickinson) and BD Cell Quest Pro software. Apoptotic cell death was also analyzed by PI and annexin V-FITC staining (Zaid H et al. 2005. 12:751-760), and by acridine orange and ethidium bromide staining and confocal microscopy (Olympus 1×81). […]

[1] = tested on: glioblastoma cell line U-87; assay: Cytochrome c release from mitochondria to cytosol (immunoblot); assay type: cell-based, human; conditions: U-87 cells, concentration-dependent
Protocol: Release of cytochrome c (Cyt c) from mitochondria to the cytosol was measured by immunoblots. Cells were incubated for 5 h with the indicated concentration of the peptide, harvested, washed twice with PBS and gently resuspended in ice-cold buffer (100 mM KCl, 2.5 mM MgCl2, 250 mM sucrose, 20 mM HEPES/KOH pH 7.5, 0.2 mMEDTA, 1 mM dithiothreitol, 1 μg/ml leupeptin, 5 μg/ml cytochalasin B and 0.1 mM phenylmethylsulfonyl fluoride) containing 0.025% digitonin and incubated for 10 min on ice. Samples were centrifuged at 10,000 g at 4° C. for 5 min to obtain the supernatants (cytosolic extracts free of mitochondria) and the pellets (fraction that contains mitochondria). The supernatants were analyzed by SDS-PAGE and immunoprobed using anti-Cyto c antibodies (1:2000, BD Pharmingen™ Cat #556433), and then with secondary horseradish peroxidase (HRP)-conjugated anti-mouse antibodies.
The effect of D-Δ(1-14) N-Ter-Antp on apoptosis was examined in the glioblastoma cell line U-87. U-87 cells were incubated with and without the peptide, treated with digitonin (0.02%) and the release of cytochrome c from mitochondria to the cytosolic fraction was analyzed by immunoblotting.

[2] = tested on: glioblastoma xenografts (U87 cells); assay: Tumor growth of U87 glioblastoma xenografts in nude mice; assay type: in vivo; conditions: xenografts injected with 10 μl of 20 or 40 μM solutions
Protocol: U87 cells were inoculated into male nude mice (7×10^6 cells/mouse). Tumor volumes were monitored (using a digital caliper) and on day 11, the mice were divided into […] (5 mice per group), with each mouse containing a tumor with a volume between 100-200 mm^3 and similar average volumes measured per group. The four mice groups were subjected to the following treatments: Xenografts were injected with 0.26% DMSO (control), with D-Δ1-14N-Ter-Antp (10 μl of 20 or 40 μM solutions) or with the previously disclosed Tf-LP4 peptide (10 μl of a 20 μM solution).

U-87 cells = assay: TEM visualization of apoptotic cell death; assay type: cell-based, human; conditions: 2.8 μM peptide
Protocol: Representative images of transmission electron microscopy (TEM) of untreated cells (FIG. 8A) or cells treated with 2.8 μM of D-Δ1-14N-Ter-Antp (FIG. 8B) are shown.

[3] = tested on: rat glioblastoma cells (C6); assay: Cell death of C6 cells, PI staining and flow cytometry; assay type: cell-based; conditions: 6 h, serum-free medium, PI-positive cells
Protocol: (§1) The efficacy of the peptide comprising amino acids […] of the N-terminal domain of VDAC1, synthesized with D-amino acids (all D-stereomeric peptide) conjugated to the Antp sequence also synthesized from D-amino acids as a CPP (D-Δ(1-14) N-Ter-Antp, SEQ ID NO:9) was further examined for its activity of inducing cell death with brain tumor derived cell lines. Human primary glioblastoma cells (U-87), human neuroblastoma cells (SH-SY5Y) and rat glioblastoma cells (C6) were incubated (4×10^5 cells) for 6 h in a serum-free-medium containing different concentrations of D-Δ1-14N-Ter-Antp (SEQ ID NO:9). The previously disclosed LP4 peptide conjugated to Tf (Tf-D-LP4 peptide, SEQ ID NO:20) was used as a reference of activity. At the end of the incubation time the cells were stained with PI and the level of cell death, reflected by the percentage of PI-positive cells, was determined by flow cytometry.

[4] = tested on: Human primary glioblastoma cells (U-87); assay: Cell death of U-87 cells, PI staining and flow cytometry; assay type: cell-based; conditions: 6 h, serum-free medium, PI-positive cells; read-out: IC50, cell death, U87
Protocol: as §1

[5] = tested on: human neuroblastoma cells (SH-SY5Y); assay: Cell death of SH-SY5Y cells, PI staining and flow cytometry; assay type: cell-based; conditions: 6 h, serum-free medium, PI-positive cells
Protocol: as §1

**Q.** CC[C@@H](C)[C@@H](NC(=O)[C@@H](CCCCN)NC(=O)[C@H](NC(=O)[C@@H](CCC(N)=O)NC(=O)[C@@H](CCCNC(=N)N)NC(=O)[C@@H](CC(C)C)NC(=O)CNC(=O)[C@@H](Cc1ccccc1)NC(=O)CNC(=O)[C@@H](Cc1ccc(O)cc1)NC(=O)CNC(=O)[C@@H](CCCCN)NC(=O)[C@H](NC(=O)[C@@H](Cc1ccccc1)NC(=O)[C@H](NC(=O)[C@@H](CC(=O)O)NC(=O)[C@H](N)CCCNC(=N)N)C(C)C)[C@H](C)O)[C@H](C)CC)C(=O)N[C@H](Cc1c[nH]c2ccccc12)C(=O)N[C@H](Cc1ccccc1)C(=O)N[C@H](CCC(N)=O)C(=O)N[C@H](CC(N)=O)C(=O)N[C@H](CCCNC(=N)N)C(=O)N[C@H](CCCNC(=N)N)C(=O)N[C@H](CCSC)C(=O)N[C@H](CCCCN)C(=O)N[C@H](Cc1c[nH]c2ccccc12)C(=O)N[C@H](CCCCN)C(=O)N[C@H](CCCCN)C(=O)O [D-Δ(1-14) N-Ter-Antp, ALL D-RDVFTKGYGFGL RQIKIWFQNRRMKWKK] (H-[dR][dD][dV][dF][dT][dK]G[dY]G[dF]G[dL][dR][dQ][dI][dK][dI][dW][dF][dQ][dN][dR][dR][dM][dK][dW][dK][dK]-OH) was tested. Which IC50 (CLL-derived lymphocytes) did it give?
**A.** The IC50 was 1300 ± 100 nM.

**Q.** And the “release of cytochrome c from the mitochondria” value [1]?
**A.** The value was “significantly induced”.

**Q.** And the tumor size [2]?
**A.** The tumor size was “significantly reduced the tumor size”.

**Q.** What about the “apoptotic morphology by TEM” value (U-87 cells) of the same molecule?
**A.** The value was “typical morphologic changes associated with apoptosis”.

**Q.** What about the IC50 [3] of the same molecule?
**A.** Its IC50 is 5300 nM.

**Q.** And the IC50 [4]?
**A.** Its IC50 is 3750 nM.

**Q.** And the IC50 [5]?
**A.** Its IC50 is 2050 nM.

— US9758559B2, “Short peptides derived from VDAC1, compositions and methods of use thereof” (B.G. NEGEV TECHNOLOGIES AND APPLICATIONS LTD., AT …, priority 2013, dated 2017)
